*1 amine or outer side, *2 acyl side, *3 side chain or, on linkers, in order; H or OH if unused. Where a SMILES comes first, the peptide text is derived from it. Bridges are numbered along the chain shown (N, C = ends). Roman numbers before positions name the chains, in order. [ ]: non-standard residue; d: D form. NH(CH2)3(OCH2CH2)2O(CH2)3NH = C(CN[*:1])COCCOCCOCCCN[*:2]; Dip = N[C@H](C(=O)O)C(c1ccccc1)c1ccccc1; Chg = N[C@H](C(=O)O)C1CCCCC1; NMeA = CN[C@@H](C)C(=O)O; dNMeA = CN[C@H](C)C(=O)O

The target in the assay is T1, MLXBIR3SG (Homo sapiens, UniProt Q96CA5, S150G).
T1 sequence (Q96CA5 with tags, fused parts or gaps S150G): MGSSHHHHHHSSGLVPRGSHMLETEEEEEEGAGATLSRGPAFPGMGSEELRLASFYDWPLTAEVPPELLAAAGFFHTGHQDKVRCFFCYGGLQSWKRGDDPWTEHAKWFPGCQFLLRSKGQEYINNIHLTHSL
As to the kind of experiment: Fluorescence Polarization Peptide Binding Assay. The note with it: competition with 5 nM AVP-diPhe-FAM probe, MLXBIR3SG at 30 nM. Here is the method: In the following experiments was used a chimeric BIR domain referred to as MLXBIR3SG in which 11 of 110 residues correspond to those found in XIAP-BIR3, while the remainder correspond to ML-IAP-BIR. […] The improved caspase-9 inhibition of the chimeric BIR domain MLXBIR3SG has been correlated with increased inhibition of doxorubicin-induced apoptosis when transfected into MCF7 cells.
Polarization experiments were performed on an Analyst HT 96-384 (Molecular Devices Corp.) according to the procedure of Keating, S. M., Marsters, J, Beresini, M., Ladner, C., Zioncheck, K., Clark, K., Arellano, F., and Bodary., S. (2000) in Proceedings of SPIE: In Vitro Diagnostic Instrumentation (Cohn, G. E., Ed.) pp 128-137, Bellingham, Wash. Samples for fluorescence polarization affinity measurements were prepared by addition of 1:2 serial dilutions starting at a final concentration of 5 μM of MLXBIR3SG in polarization buffer (50 mM Tris [pH 7.2], 120 mM NaCl, 1% bovine globulins 5 mM DTT and 0.05% octylglucoside) to 5-carboxyflourescein-conjugated AVPdi-Phe-NH2 (AVP-diPhe-FAM) at 5 nM final concentration.
The reactions were read after an incubation time of 10 minutes at room temperature with standard cut-off filters for the fluorescein fluorophore (λex=485 nm; λem=530 nm) in 96-well black HE96 plates (Molecular Devices Corp.). Fluorescence values were plotted as a function of the protein concentration, and the IC50s were obtained by fitting the data to a 4-parameter equation using Kaleidograph software (Synergy software, Reading, Pa.). Competition experiments were performed by addition of the MLXBIR3SG at 30 nM to wells containing 5 nM of the AVP-diPhe-FAM probe as well as 1:3 serial dilutions of antagonist compounds starting at a concentration of 300 μM in the polarization buffer. Samples were read after a 10-minute incubation. Fluorescence polarization values were plotted as a function of the antagonist concentration, and the IC50 values were obtained by fitting the data to a 4-parameter equation using Kaleidograph software (Synergy software, Reading, Pa.) Inhibition constants (Ki) for the antagonists were determined from the IC50 values.
Background: Fluorescence polarisation rises when a labelled molecule tumbles more slowly, as on binding a larger partner.
The IC50 is the concentration at which inhibition is half-maximal. As to `CN[C@@H](C)C(=O)N[C@H](C(=O)N1CCC[C@H]1C(=O)Nc1sc(C(=O)NCC(C)(C)CNC(=O)c2nc(-c3ccccc3)c(NC(=O)[C@@H]3CCCN3C(=O)[C@@H](NC(=O)[C@H](C)NC)C3CCCCC3)s2)nc1-c1ccccc1)C1CCCCC1` [compound 23], the IC50 came to 679 nM.

Take `CN[C@@H](C)C(=O)N[C@H](C(=O)N1CCC[C@H]1C(=O)Nc1sc(-c2nccs2)nc1-c1ccccc1)c1ccc(OCC#CC#CCOc2ccc([C@H](NC(=O)[C@H](C)N)C(=O)N3CCC[C@H]3C(=O)Nc3sc(-c4nccs4)nc3-c3ccccc3)cc2)cc1` [compound 11]: the IC50 was determined as 1030 nM.

`CN[C@@H](C)C(=O)N[C@H](C(=O)N1CCC[C@H]1C(=O)Nc1sc(C(=O)NCC(O)CNC(=O)c2nc(-c3ccccc3)c(NC(=O)[C@@H]3CCCN3C(=O)[C@@H](NC(=O)[C@H](C)NC)C3CCCCC3)s2)nc1-c1ccccc1)C1CCCCC1` [compound 22]: the IC50 worked out at 378 nM.

In the case of `CN[C@@H](C)C(=O)N[C@H](C(=O)N1CCC[C@H]1C(=O)Nc1sc(C(=O)NCCOCCOCCNC(=O)c2nc(-c3ccccc3)c(NC(=O)[C@@H]3CCCN3C(=O)[C@@H](NC(=O)[C@H](C)NC)C3CCCCC3)s2)nc1-c1ccccc1)C1CCCCC1` [compound 16], the IC50 was determined as 234 nM.

In the case of `CN[C@@H](C)C(=O)N[C@H](C(=O)N1CCC[C@H]1C(=O)Nc1sc(C(=O)NCc2ccc(CNC(=O)c3nc(-c4ccccc4)c(NC(=O)C4CCCN4C(=O)[C@H](NC(=O)[C@@H](C)NC)C4CCCCC4)s3)cc2)nc1-c1ccccc1)C1CCCCC1` (stereo partly drawn) [compound 24], the IC50 was found to be 1380 nM.

Consider `CN[C@@H](C)C(=O)N[C@H](C(=O)N1CC(OCc2ccc(C#CC#Cc3ccc(CO[C@H]4C[C@@H](C(=O)Nc5snnc5-c5ccccc5)N(C(=O)[C@@H](NC(=O)[C@H](C)NC)C5CCCCC5)C4)cc3)cc2)C[C@H]1C(=O)Nc1snnc1-c1ccccc1)C1CCCCC1` (stereo partly drawn) [compound 4], for which the half-inhibitory concentration (IC50) stood at 2410 nM.

As to `CN[C@@H](C)C(=O)N[C@H](C(=O)N1CCC[C@H]1C(=O)N[C@H](C(=O)NCCCOCCOCCOCCCNC(=O)[C@@H](NC(=O)[C@@H]1CCCN1C(=O)[C@@H](NC(=O)[C@@H](C)NC)C1CCCCC1)C(c1ccccc1)c1ccccc1)C(c1ccccc1)c1ccccc1)C1CCCCC1` [compound 10] (I: H-[NMeA][Chg]P[Dip] / II: H-[dNMeA][Chg]P[Dip]; linker I:C-II:C via NH(CH2)3(OCH2CH2)2O(CH2)3NH), the IC50 came to 1320 nM.

For the compound `CN[C@@H](C)C(=O)N[C@H](C(=O)N1CCC[C@H]1C(=O)Nc1sc(-c2ccccn2)nc1-c1ccccc1)c1ccc(OCC#CC#CCOc2ccc([C@H](NC(=O)[C@H](C)NC)C(=O)N3CCC[C@H]3C(=O)Nc3sc(-c4ccccn4)nc3-c3ccccc3)cc2)cc1` [compound 14], the IC50 came to 2350 nM.

For the compound `CN[C@@H](C)C(=O)N[C@H](C(=O)C1CCCN1c1nc2c(-c3ccccc3)nccc2s1)C1CCN(C(=O)NCCCCCCNC(=O)N2CCC([C@H](NC(=O)[C@H](C)NC)C(=O)N3CCC[C@H]3c3nc4c(-c5ccccc5)nccc4s3)CC2)CC1` (stereo partly drawn) [compound 17], the IC50 is 168 nM.

As to `CN[C@@H](C)C(=O)N[C@H](C(=O)N1CCC[C@H]1C(=O)Nc1sc(C(=O)NCCCCCCCCCCCNC(=O)c2nc(-c3ccccc3)c(NC(=O)[C@@H]3CCCN3C(=O)[C@@H](NC(=O)[C@H](C)NC)C3CCCCC3)s2)nc1-c1ccccc1)C1CCCCC1` [compound 15], the IC50 was determined as 3830 nM.

Consider `CN[C@@H](C)C(=O)N[C@H](C(=O)N1CCC[C@H]1C(=O)Nc1sc(-c2ccccn2)nc1-c1ccccc1)c1ccc(OCC#CC#CCOc2ccc([C@H](NC(=O)[C@H](C)NC)C(=O)N3CCC[C@H]3C(=O)Nc3sc(-c4nccn4C)nc3-c3ccccc3)cc2)cc1` [compound 13], for which the IC50 was 3820 nM.

As to `CN[C@@H](C)C(=O)N[C@H](C(=O)N1CCC[C@H]1C(=O)Nc1sc(-c2nccn2C)nc1-c1ccccc1)c1ccc(OCC#CC#CCOc2ccc([C@H](NC(=O)[C@H](C)NC)C(=O)N3CCC[C@H]3C(=O)Nc3sc(-c4nccn4C)nc3-c3ccccc3)cc2)cc1` [compound 12], the IC50 was 1100 nM.

The values are drawn from patent US8907092B2, “Inhibitors of IAP” (Genentech, Inc., priority 2007, dated 2014).
